Reference: PubChem BioAssay AID1259407 (Chemical Carcinogenesis Research Information System (CCRIS), 2018)
Activity calls are given as the source filed them. The rule behind the calls is not given here.

Test system: CCRIS mutagenicity, Ames/micronucleus/aberration tests
Assay: CCRIS mutagenicity studies
[1] = Test System: AMES SALMONELLA TYPHIMURIUM, Strain/Indicator: TA98, Metabolic Activation: NONE, Method: PREINCUBATION
[2] = Test System: AMES SALMONELLA TYPHIMURIUM, Strain/Indicator: TA100, Metabolic Activation: NONE, Method: PREINCUBATION
[3] = Test System: AMES SALMONELLA TYPHIMURIUM, Strain/Indicator: TA1535, Metabolic Activation: NONE, Method: PREINCUBATION
[4] = Test System: AMES SALMONELLA TYPHIMURIUM, Strain/Indicator: TA97, Metabolic Activation: NONE, Method: PREINCUBATION
[5] = Test System: AMES SALMONELLA TYPHIMURIUM, Strain/Indicator: TA97, Metabolic Activation: RAT, LIVER, S-9, AROCLOR 1254, Method: PREINCUBATION
[6] = Test System: AMES SALMONELLA TYPHIMURIUM, Strain/Indicator: TA102, Metabolic Activation: NONE, Method: PREINCUBATION
[7] = Test System: AMES SALMONELLA TYPHIMURIUM, Strain/Indicator: TA102, Metabolic Activation: RAT, LIVER, S-9, AROCLOR 1254, Method: PREINCUBATION
[8] = Test System: AMES SALMONELLA TYPHIMURIUM, Strain/Indicator: TA98, Metabolic Activation: NONE, Method: STANDARD PLATE
[9] = Test System: AMES SALMONELLA TYPHIMURIUM, Strain/Indicator: TA100, Metabolic Activation: NONE, Method: STANDARD PLATE
[10] = Test System: AMES SALMONELLA TYPHIMURIUM, Strain/Indicator: TA98, Metabolic Activation: RAT LIVER S-9, PHENOBARBITAL AND BETA-NAPHTHOFLAVONE, Method: PREINCUBATION
[11] = Test System: AMES SALMONELLA TYPHIMURIUM, Strain/Indicator: TA100, Metabolic Activation: RAT LIVER S-9, PHENOBARBITAL AND BETA-NAPHTHOFLAVONE, Method: PREINCUBATION
[12] = Test System: AMES SALMONELLA TYPHIMURIUM, Strain/Indicator: TA1535, Metabolic Activation: RAT LIVER S-9, PHENOBARBITAL AND BETA-NAPHTHOFLAVONE, Method: PREINCUBATION
[13] = Test System: AMES SALMONELLA TYPHIMURIUM, Strain/Indicator: TA1537, Metabolic Activation: RAT LIVER S-9, PHENOBARBITAL AND BETA-NAPHTHOFLAVONE, Method: PREINCUBATION

Measured: mutagenic call

CCCCCCCC(=O)CCc1ccc(O)c(OC)c1
inactive: [1] inactive; negative | Test System: AMES SALMONELLA TYPHIMURIUM, Strain/Indicator: TA98, Metabolic Activation: RAT LIVER S-9, SODIUM PHENOBARBITAL, Method: PREINCUBATION inactive; negative | [2] inactive; negative | Test System: AMES SALMONELLA TYPHIMURIUM, Strain/Indicator: TA100, Metabolic Activation: RAT LIVER S-9, SODIUM PHENOBARBITAL, Method: PREINCUBATION inactive; negative | [3] inactive; negative | Test System: AMES SALMONELLA TYPHIMURIUM, Strain/Indicator: TA1535, Metabolic Activation: RAT LIVER S-9, SODIUM PHENOBARBITAL, Method: PREINCUBATION inactive; negative | Test System: AMES SALMONELLA TYPHIMURIUM, Strain/Indicator: TA1538, Metabolic Activation: NONE, Method: PREINCUBATION inactive; negative | Test System: AMES SALMONELLA TYPHIMURIUM, Strain/Indicator: TA1538, Metabolic Activation: RAT LIVER S-9, SODIUM PHENOBARBITAL, Method: PREINCUBATION inactive; negative

CC1(C(Cl)Cl)C2[C@@H](Cl)[C@H](Cl)C1(C(Cl)Cl)[C@@H](Cl)[C@@H]2Cl (stereo partly drawn)
inactive: [2] inactive; negative

O.O.O=C([O-])[C@H](O)[C@@H](O)[C@H](O)[C@H](O)CO.O=C([O-])[C@H](O)[C@@H](O)[C@H](O)[C@H](O)CO.[Fe+2]
inactive: [4] inactive; negative | [5] inactive; negative | [6] inactive; negative | [7] inactive; negative

COc1ccc(-c2nc(-c3ccccc3)c(-c3ccccc3)[nH]2)cc1OC
active: [8] active; positive | [9] active; positive | Test System: AMES SALMONELLA TYPHIMURIUM, Strain/Indicator: TA100, Metabolic Activation: RAT LIVER S-9, 3-METHYLCHOLANTHRENE, SODIUM PHENOBARBITAL, Method: STANDARD PLATE active; positive

OC1C=C2c3ccc4ccccc4c3-c3cccc(c32)C1O (stereo not drawn)
active: Test System: AMES SALMONELLA TYPHIMURIUM, Strain/Indicator: TA97A, Metabolic Activation: RAT, LIVER, S-9, AROCLOR 1254, Method: PREINCUBATION active; positive | Test System: AMES SALMONELLA TYPHIMURIUM, Strain/Indicator: TA98, Metabolic Activation: RAT, LIVER, S-9, AROCLOR 1254, Method: PREINCUBATION active; positive | [2] active; positive | Test System: AMES SALMONELLA TYPHIMURIUM, Strain/Indicator: TA100, Metabolic Activation: RAT, LIVER, S-9, AROCLOR 1254, Method: PREINCUBATION active; positive
inactive: Test System: AMES SALMONELLA TYPHIMURIUM, Strain/Indicator: TA97A, Metabolic Activation: NONE, Method: PREINCUBATION inactive; negative | [1] inactive; negative

CCC(=O)CN(C)N=O
active: Test System: CHINESE HAMSTER V-79, Strain/Indicator: V-79/OUABAIN, Metabolic Activation: HAMSTER, HEPATOCYTES, Method: CELL-MEDIATED active; positive

N[C@@H](CC(=O)O)C(=O)O
inactive: End Point: In vivo micronucleus, Test System: Bone marrow erythrocytes, Species: Mouse, Strain/Sex: Crl:CD1 (ICR)/Male and female, Route: Oral inactive; negative | [4] inactive; negative | [5] inactive; negative | [1] inactive; negative | [10] inactive; negative | [2] inactive; negative | [11] inactive; negative | [6] inactive; negative | [7] inactive; negative | [3] inactive; negative | [12] inactive; negative | Test System: AMES SALMONELLA TYPHIMURIUM, Strain/Indicator: TA1537, Metabolic Activation: NONE, Method: PREINCUBATION inactive; negative | [13] inactive; negative | Test System: Ames Salmonella typhimurium, Strain/Indicator: TA98, Species: None, Method: Standard plate inactive; negative | Test System: Ames Salmonella typhimurium, Strain/Indicator: TA98, Species: Rat, Liver, S-9, Aroclor 1254 (10%), Method: Standard plate inactive; negative | Test System: Ames Salmonella typhimurium, Strain/Indicator: TA100, Species: None, Method: Standard plate inactive; negative | Test System: Ames Salmonella typhimurium, Strain/Indicator: TA100, Species: Rat, Liver, S-9, Aroclor 1254 (10%), Method: Standard plate inactive; negative | Test System: Ames Salmonella typhimurium, Strain/Indicator: TA1535, Species: None, Method: Standard plate inactive; negative | Test System: Ames Salmonella typhimurium, Strain/Indicator: TA1535, Species: Rat, Liver, S-9, Aroclor 1254 (10%), Method: Standard plate inactive; negative | Test System: Ames Salmonella typhimurium, Strain/Indicator: TA1537, Species: None, Method: Standard plate inactive; negative | Test System: Ames Salmonella typhimurium, Strain/Indicator: TA1537, Species: Rat, Liver, S-9, Aroclor 1254 (10%), Method: Standard plate inactive; negative | Test System: E. coli, Strain/Indicator: WP2 uvrA, Metabolic Activation: None, Method: Standard plate inactive; negative | Test System: E. coli, Strain/Indicator: WP2 uvrA, Metabolic Activation: Rat, Liver, S-9, Aroclor 1254 (10%), Method: Standard plate inactive; negative | Test System: E.COLI, Strain/Indicator: WP2UVRA/PKM101, Metabolic Activation: NONE, Method: PREINCUBATION inactive; negative | Test System: E.COLI, Strain/Indicator: WP2UVRA/PKM101, Metabolic Activation: RAT LIVER S-9, PHENOBARBITAL AND BETA-NAPHTHOFLAVONE, Method: PREINCUBATION inactive; negative

Nc1ccc(NC(=O)c2ccc(N)cc2)cc1
inactive: [1] inactive; negative | [2] inactive; negative | [11] inactive; negative | [3] inactive; negative | [12] inactive; negative | Test System: E.COLI, Strain/Indicator: WP2UVRA, Metabolic Activation: NONE, Method: PREINCUBATION inactive; negative | Test System: E.COLI, Strain/Indicator: WP2UVRA, Metabolic Activation: RAT LIVER S-9, PHENOBARBITAL AND BETA-NAPHTHOFLAVONE, Method: PREINCUBATION inactive; negative
active: [10] active; positive | [13] active; positive

Cc1c2ccccc2c(C)c2ccccc12
active: [8] active; positive | Test System: AMES SALMONELLA TYPHIMURIUM, Strain/Indicator: TA98, Metabolic Activation: RAT, LIVER, S-9, AROCLOR 1254, Method: STANDARD PLATE active; positive | Test System: AMES SALMONELLA TYPHIMURIUM, Strain/Indicator: TA100, Metabolic Activation: RAT, LIVER, S-9, AROCLOR 1254, Method: STANDARD PLATE active; positive
inactive: [9] inactive; negative

COC(=O)/C=C/C(C)=C\C=C\C(C)=C\C=C\C=C(C)\C=C\C=C(C)\C=C\C(=O)O
inactive: Test System: Mouse lymphoma, Strain/Indicator: L5178Y (tk+/tk-), Metabolic Activation: None, Method: Suspension/plate inactive; negative | Test System: Mouse lymphoma, Strain/Indicator: L5178Y (tk+/tk-), Metabolic Activation: Rat, Liver, S-9, Aroclor 1254, Method: Suspension/plate inactive; negative
